Reference: US7923004B2 (priority 2006, dated 2011)

How the values were obtained:
Type in all cases: cell-based
[1] = test system: HCV genotype 1b replicon (Huh-Luc-Neo cells); test: HCV Replicon Luciferase Assay; details: Hepatitis C virus, Huh-Luc-Neo cells, genotype 1b, 72 h, read-out: HCV-1b Replicon Inhibition*, Luciferase (EC50)
[2] = test system: HCV genotype 1b replicon (Huh-Luc-Neo cells); test: HCV Replicon RNA (Taqman) Assay, genotype 1b; details: Hepatitis C virus, Huh-Luc-Neo cells, genotype 1b, HCV RNA, 72 h, read-out: HCV-1b Replicon Inhibition*, Taqman (EC50)
[3] = Cell Titer-Glo Cell Viability Assay, genotype 1b cells; details: human, Huh-Luc-Neo (HCV genotype 1b replicon) cells, HCV genotype 1b assays, read-out: Cytotoxicity* (CC50)
Procedure: Cell Seeding and Compound Treatment: Huh-Luc-Neo (Genotype 1b) or En5-3/Htat2ANeo (Genotype 1a) cells are seeded at 5000-7000/well in an opaque-walled 96 plate with Growth Medium (DMEM phenol red free+PS+2 mM glutamine; 100 ul/well). The compounds to be tested for inhibition of cell viability are added to the experimental wells so as to generate a dose response curve (8-9 concentrations, 10 μl/well at 10× assay concentration) and the cells are then incubated (5% CO2, 37° C.) for 72 h.
Reagent Preparation and Assay: After completion of the incubation period the cell viability measurements are made using the Cell Titre Glo Assay (Promega) according to the manufacturer's recommended protocol. Briefly, the CellTiter-Glo Buffer is thawed and equilibrated to room temperature prior to use. The lyophilized CellTiter-Glo Substrate is also equilibrated to room temperature prior to use. 10 ml of CellTiter-Glo Buffer is then transferred to 1 vial of CellTiter-Glo Substrate and mixed gently with a Vortex. 100 μl of CellTiter-Glo Assay reagent (CellTiter-Glo Buffer+CellTiter-Glo Substrate Mixture) is added to each well. The well contents are mixed for 5 min. on an orbital shaker at room temperature to induce cell lysis and the luminescence is then measured using a luminometer.

Row | SMILES | EC50 [1] [nM] | EC50 [2] [nM] | CC50 at 72 h [3] [nM] | EC50 ([1]; GETYPE1B) [nM] | EC50 ([2]; GETYPE1B) [nM]
1 | Cc1ccc(O)c(-c2nn(C)cc2C#Cc2ccc(NC(=O)C3CCCCN3C(=O)C(NC(=O)OC(C)(C)C)c3ccccc3)cc2)c1 (stereo not drawn) [Compound 1] | 1000 to 10000 | < 1000 | > 100000 | – | –
2 | Cc1ccc(O)c(-c2nn(C)cc2C#Cc2ccc(NC(=O)[C@H]3CCCCN3C(=O)[C@H](Cc3ccccc3)NC(=O)OC(C)(C)C)cc2)c1 [Compound 2] | < 1000 | < 1000 | > 100000 | – | –
3 | Cc1ccc(O)c(-c2nn(C)cc2C#Cc2ccc(NC(=O)C3CCCCN3C(=O)[C@H](Cc3cccnc3)NC(=O)OC(C)(C)C)cc2)c1 (stereo partly drawn) [Compound 3] | < 1000 | < 1000 | > 100000 | – | –
4 | COc1ccc(C[C@H](NC(=O)OC(C)(C)C)C(=O)N2CCCCC2C(=O)Nc2ccc(C#Cc3cn(C)nc3-c3cc(C)ccc3O)cc2)cc1 (stereo partly drawn) [Compound 4] | < 1000 | < 1000 | < 1000 | – | –
5 | Cc1ccc(O)c(-c2nn(C)cc2C#Cc2ccc(NC(=O)C3CCCCN3C(=O)[C@H](Cc3ccc(F)cc3)NC(=O)OC(C)(C)C)cc2)c1 (stereo partly drawn) [Compound 5] | < 1000 | < 1000 | > 100000 | – | –
6 | Cc1ccc(O)c(-c2nn(C)cc2C#Cc2ccc(NC(=O)C3CCCCN3C(=O)[C@H](Cc3ccc(Cl)cc3Cl)NC(=O)OC(C)(C)C)cc2)c1 (stereo partly drawn) [Compound 6] | < 1000 | < 1000 | > 100000 | – | –
7 | Cc1ccc(O)c(-c2nn(C)cc2C#Cc2ccc(NC(=O)C3CCCCN3C(=O)[C@H](CCc3ccccc3)NC(=O)OC(C)(C)C)cc2)c1 (stereo partly drawn) [Compound 7A] | – | – | 10000 to 100000 | < 1000 | < 1000
8 | Cc1ccc(O)c(-c2nn(C)cc2C#Cc2ccc(NC(=O)C3CCCCN3C(=O)[C@H](Cc3ccccc3)NC(=O)CC3CCCC3)cc2)c1 (stereo partly drawn) [Compound 7] | < 1000 | < 1000 | > 100000 | – | –
9 | Cc1ccc(O)c(-c2nn(C)cc2C#Cc2ccc(NC(=O)C3CCCCN3C(=O)[C@H](Cc3ccccc3)NC(=O)CC(C)(C)C)cc2)c1 (stereo partly drawn) [Compound 8] | < 1000 | < 1000 | 10000 to 100000 | – | –
10 | Cc1ccc(O)c(-c2nn(C)cc2C#Cc2ccc(NC(=O)C3CCCCN3C(=O)[C@H](Cc3ccccc3)NC(=O)CC3CCCCC3)cc2)c1 (stereo partly drawn) [Compound 9] | < 1000 | < 1000 | 10000 to 100000 | – | –
11 | Cc1ccc(O)c(-c2nn(C)cc2C#Cc2ccc(NC(=O)C3CCCCN3C(=O)[C@H](Cc3ccccc3)NC(=O)C3CCCCC3)cc2)c1 (stereo partly drawn) [Compound 10] | < 1000 | < 1000 | 10000 to 100000 | – | –
12 | Cc1ccc(OS(=O)(=O)C(F)(F)F)c(-c2nn(C)cc2C#Cc2ccc(NC(=O)C3CCCCN3C(=O)[C@H](Cc3ccccc3)NC(=O)OC(C)(C)C)cc2)c1 (stereo partly drawn) [Compound 11] | < 1000 | < 1000 | > 100000 | – | –
13 | Cc1ccc(O)c(-c2nn(C)cc2C#Cc2ccc(NC(=O)C3CCCCN3C(=O)[C@H](Cc3ccco3)NC(=O)OC(C)(C)C)cc2)c1 (stereo partly drawn) [Compound 12A] | – | – | 10000 to 100000 | < 1000 | < 1000
14 | Cc1ccc(O)c(-c2nn(C)cc2C#Cc2ccc(NC(=O)C3CCCCN3S(=O)(=O)c3cccs3)cc2)c1 (stereo not drawn) [Compound 12] | < 1000 | < 1000 | > 100000 | – | –
15 | Cc1ccc(O)c(-c2nn(C)cc2C#Cc2ccc(NC(=O)C3CCCCN3C(=O)[C@@H](NC(=O)OC(C)(C)C)C3CCCCC3)cc2)c1 (stereo partly drawn) [Compound 13] | 1000 to 10000 | < 1000 | > 100000 | – | –
16 | Cc1ccc(O)c(-c2nn(C)cc2C#Cc2ccc(NC(=O)C3CCCCN3C(=O)[C@H](Cc3ccccc3)NC(=O)OC(C)(C)C)cc2)c1 (stereo partly drawn) [Compound 14] | < 1000 | < 1000 | > 100000 | – | –
17 | Cc1ccc(O)c(-c2nn(C)cc2C#Cc2ccc(NC(=O)[C@@H]3CCCCN3C(=O)[C@@H](Cc3ccccc3)NC(=O)OC(C)(C)C)cc2)c1 [Compound 15] | < 1000 | < 1000 | > 100000 | – | –
18 | Cc1ccc(O)c(-c2nn(C)cc2C#Cc2ccc(NC(=O)[C@@H]3CCCCN3C(=O)[C@H](NC(=O)OC(C)(C)C)c3ccccc3)cc2)c1 [Compound 16] | < 1000 | < 1000 | > 100000 | – | –

Row | SMILES | EC50 [1] [nM] | EC50 [2] [nM] | CC50 at 72 h [3] [nM] | EC50 ([1]; GETYPE1B) [nM] | EC50 ([2]; GETYPE1B) [nM]
19 | COc1ccccc1[C@@H](NC(=O)OC(C)(C)C)C(=O)N1CCOC[C@H]1C(=O)Nc1ccc(C#Cc2cn(C)nc2-c2cc(C#N)ccc2O)cc1 [Compound 22A] | – | – | > 100000 | < 1000 | < 1000
20 | Cn1cc(C#Cc2ccc(NC(=O)[C@@H]3CCCCN3C(=O)[C@H](NC(=O)OC(C)(C)C)c3ccccc3)cc2)c(-c2cc(Br)ccc2O)n1 [Compound 22] | < 1000 | < 1000 | 10000 to 100000 | – | –
21 | Cc1ccc(O)c(-c2nn(C)cc2C#Cc2ccc(NC(=O)C3CCCCN3C(=O)[C@H](Cc3ccc(Cl)cc3)NC(=O)OC(C)(C)C)cc2)c1 (stereo partly drawn) [Compound 23] | < 1000 | < 1000 | 10000 to 100000 | – | –
22 | Cc1ccc(O)c(-c2nn(C)cc2C#Cc2ccc(NC(=O)C3CCCCN3C(=O)[C@H](Cc3ccc(C(N)=O)cc3)NC(=O)OC(C)(C)C)cc2)c1 (stereo partly drawn) [Compound 24] | < 1000 | < 1000 | 10000 to 100000 | – | –
23 | Cc1ccc(O)c(-c2nn(C)cc2C#Cc2ccc(NC(=O)C3CCCCN3C(=O)[C@H](Cc3ccc(Br)cc3)NC(=O)OC(C)(C)C)cc2)c1 (stereo partly drawn) [Compound 26] | < 1000 | < 1000 | 10000 to 100000 | – | –
24 | Cc1ccc(O)c(-c2nn(C)cc2C#Cc2ccc(NC(=O)[C@@H]3CNCCN3C(=O)[C@H](NC(=O)OC(C)(C)C)c3ccccc3)cc2)c1 [Compound 27A] | – | – | 10000 to 100000 | < 1000 | < 1000
25 | Cc1ccc(O)c(-c2nn(C)cc2C#Cc2ccc(NC(=O)C3CCCCN3C(=O)[C@H](Cc3cccc(F)c3)NC(=O)OC(C)(C)C)cc2)c1 (stereo partly drawn) [Compound 27] | < 1000 | < 1000 | 10000 to 100000 | – | –
26 | CC(C)(C)OC(=O)N[C@@H](C(=O)N1CCOCC1C(=O)Nc1ccc(C#Cc2cn(CCO)nc2-c2cc(Cl)ccc2O)cc1)c1ccccc1 (stereo partly drawn) [Compound 30A] | – | – | > 100000 | < 1000 | < 1000
27 | CCOC(=O)c1ccc(O)c(-c2nn(C)cc2C#Cc2ccc(NC(=O)[C@@H]3CCCCN3C(=O)[C@H](NC(=O)OC(C)(C)C)c3ccccc3)cc2)c1 [Compound 30] | < 1000 | < 1000 | > 100000 | – | –
28 | CCOC(=O)c1ccc(O)c(-c2nn(C)cc2C#Cc2ccc(NC(=O)[C@@H]3CCCCN3C(=O)[C@H](NC(=O)OC(C)(C)C)c3ccccc3OC)cc2)c1 [Compound 31] | < 1000 | < 1000 | > 100000 | – | –
29 | CCOC(=O)c1ccc(O)c(-c2nn(C)cc2C#Cc2ccc(NC(=O)[C@@H]3CCCCN3C(=O)[C@H](NC(=O)OC(C)(C)C)c3ccsc3)cc2)c1 [Compound 33] | < 1000 | < 1000 | > 100000 | – | –
30 | Cn1cc(C#Cc2ccc(NC(=O)[C@@H]3COCCN3C(=O)[C@H](NC(=O)OC(C)(C)C)c3ccsc3)cc2)c(-c2cc(C#N)ccc2O)n1 [Compound 34] | < 1000 | < 1000 | > 100000 | – | –
31 | Cn1cc(C#Cc2ccc(NC(=O)[C@@H]3COCCN3C(=O)[C@H](NC(=O)OC(C)(C)C)c3ccccc3)cc2)c(-c2cc(C#N)ccc2O)n1 [Compound 37] | < 1000 | < 1000 | > 100000 | – | –
32 | CC(C)(C)OC(=O)N[C@@H](C(=O)N1CCCC[C@H]1C(=O)Nc1ccc(C#Cc2c[nH]nc2-c2cc(Cl)ccc2O)cc1)c1ccccc1 [Compound 38] | < 1000 | < 1000 | > 100000 | – | –
33 | CC(C)(C)OC(=O)N[C@@H](C(=O)N1CCCC[C@H]1C(=O)Nc1ccc(C#Cc2cn(CCO)nc2-c2cc(Cl)ccc2O)cc1)c1ccccc1 [Compound 39] | < 1000 | < 1000 | 10000 to 100000 | – | –
34 | Cc1ccc(O)c(-c2nn(C)cc2C#Cc2ccc(NC(=O)[C@@H]3CN(C(=O)C(F)(F)F)CCN3C(=O)[C@H](NC(=O)OC(C)(C)C)c3ccccc3)cc2)c1 [Compound 41] | < 1000 | < 1000 | > 100000 | – | –
35 | CN(C(=O)OC(C)(C)C)[C@@H](Cc1ccccc1)C(=O)N1CCCC[C@@H]1C(=O)Nc1ccc(C#Cc2cn(CCO)nc2-c2cc(Cl)ccc2O)cc1 [Compound 42] | < 1000 | < 1000 | 10000 to 100000 | – | –
36 | Cc1ccc(O)c(-c2nn(C)cc2C#Cc2ccc(NC(=O)[C@@H]3CS(=O)(=O)CCN3C(=O)[C@H](NC(=O)OC(C)(C)C)c3ccccc3)cc2)c1 [Compound 45] | < 1000 | < 1000 | > 100000 | – | –
